The values below come from patent publication US20100221308A1, “ANTIMICROBIAL COMPOSITIONS AND USES THEREOF” (KANE BIOTECH INC., priority 2005, published 2010).

≈ marks a conversion by molar mass, not a printed value. Where two headings read alike, the source gives them in different places.

One assay relates to A. naeslundii ATCC 12104. Nature of the assay: MIC for oral bacteria, broth microdilution assay. It is filed as cell-based. The following applies: agent alone, 24 h. On the procedure:
(§1) The minimum inhibitory concentrations (MICs) of chlorhexidine (CHX) and protamine sulfate (PS) alone and CHX and PS combination for S. mutans, S. sobrinus and A. naeslundii were determined using a broth microdilution assay in 96-well microtiter plate as described previously (Amsterdam, D. 1996., In: V. Loman, Ed., “Antibiotics in laboratory medicine”, p. 52-111, Williams and Wilkins, Baltimore, Md.). S. mutans and S. sobrinus were grown overnight at 37° C. with 100 rpm shaking in THYE broth supplemented with 0.01% hog gastric mucin, and A. naeslundii was grown in TSB-YK broth, and diluted to approximately 10^5 CFU/ml. […] Plates were incubated at 37° C. for 24 h and were read at 600 nm using a microtiter plate reader (Labsystems, Multiskan Ascent, Helsinki, Finland).
On the technique in general: In broth dilution the organism is exposed to a series of concentrations in liquid medium.

The test system of a further assay is S. mutans UA 159. Nature of the assay: MIC for oral bacteria, broth microdilution assay. The assay is classed as cell-based. The following applies: agent alone, 24 h. As to the method:
as §1

The test system of a further assay is S. sobrinus HNG 909S. Nature of the assay: MIC for oral bacteria, broth microdilution assay. It is filed as cell-based. The conditions noted are these: agent alone, 24 h. As to the method:
as §1

Assay [1] deals with biofilm embedded Staphylococcus epidermidis. Description: In vitro microplate assay, growth of biofilm embedded bacteria (CFU). The assay is classed as cell-based. The conditions noted are these: FIG. 3: 12.5 μg/ml PS, 12.5 μg/ml CHX; 24 hours. On the procedure:
In vitro microplate assays were performed to determine the enhanced effects of protamine sulfate and chlorhexidine salt combination on the growth of biofilm embedded biofilm forming catheter-associated bacteria such as E. coli, Pseudomonas aeruginosa and Staphylococcus epidermidis. Overnight culture of each bacterial strain grown in Luria-Bertani (LB) or Tryptic Soy Broth (TSB) was used as inoculum. […] The plate was incubated at 37° C. for 24 hours. Media containing planktonic cells in each well were removed gently and rinsed with sterile water. A known volume of water was added to each well and sonicated for 30 seconds. The transfer of contents of each well into a sterile tube and vortexing for a minute was followed by 10-fold serial dilution and plating on agar plates using a spreader. After incubating the plates at 37° C. for 24 hours, the colonies forming units (CFU) were counted.

A further assay deals with P. aeruginosa. Nature of the assay: MIC, broth microdilution assay. The assay is classed as cell-based, Pseudomonas aeruginosa. The conditions noted are these: agent alone, 24 h.
Another assay deals with B. cereus. Nature of the assay: MIC, broth microdilution assay. The following applies: agent alone, 24 h. It is filed as cell-based, Bacillus cereus.
Another assay deals with S. aureus. Nature of the assay: MIC, broth microdilution assay. It is filed as cell-based, Staphylococcus aureus. The following applies: agent alone, 24 h.
The subject of another assay is S. thermophilus. Nature of the assay: MIC, broth microdilution assay. The assay is classed as cell-based, Streptococcus thermophilus. The conditions noted are these: agent alone, 24 h.
For another assay, the system named is K. pneumoniae. Nature of the assay: MIC, broth microdilution assay. It is filed as cell-based, Klebsiella pneumoniae. The following applies: agent alone, 24 h.
For the next assay, the system named is L. monocytogens. Description: MIC, broth microdilution assay. The assay is classed as cell-based, Listeria monocytogenes. The following applies: agent alone, 24 h.
The subject of another assay is C. perfringens. Description: microbe, parasite or virus in culture. The assay is classed as cell-based, Clostridium perfringens. The conditions noted are these: 24 h.
A further assay deals with E. coli. Nature of the assay: MIC, broth microdilution assay. The assay is classed as cell-based. The following applies: agent alone, 24 h.
Assay [2] concerns biofilm embedded Pseudomonas aeruginosa. Nature of the assay: In vitro microplate assay, growth of biofilm embedded bacteria (CFU). It is filed as cell-based. The following applies: FIG. 2: 25 μg/ml PS, 25 μg/ml CHX; 24 hours. On the procedure:
(§2) In vitro microplate assays were performed to determine the enhanced effects of protamine sulfate and chlorhexidine salt combination on the growth of biofilm embedded biofilm forming catheter-associated bacteria such as E. coli, Pseudomonas aeruginosa and Staphylococcus epidermidis. Overnight culture of each bacterial strain grown in Luria-Bertani (LB) or Tryptic Soy Broth (TSB) was used as inoculum. Bacteria were grown in Colony Forming Antigen (CFA) medium (for gram-negative) or in TSB (for gram-positive) on a 12-well microplate in the absence and presence of each test compound (PS or CHX) separately and together (PS+CHX) at 12.5, 25, or 50 μg/ml. The plate was incubated at 37° C. for 24 hours. Media containing planktonic cells in each well were removed gently and rinsed with sterile water. A known volume of water was added to each well and sonicated for 30 seconds. The transfer of contents of each well into a sterile tube and vortexing for a minute was followed by 10-fold serial dilution and plating on agar plates using a spreader. After incubating the plates at 37° C. for 24 hours, the colonies forming units (CFU) were counted.

For the next assay, the system named is biofilm embedded E. coli. The assay is described as above. It is filed as cell-based. The following applies: FIG. 1: 50 μg/ml PS, 12.5 μg/ml CHX; 24 hours. As to the method: as §2

As to `[H]/N=C(\N/C(=N/[H])NCCCCCCNC(=N)NC(=N)Nc1ccc(Cl)cc1)Nc1ccc(Cl)cc1` [CHX, chlorhexidine], the MIC in the assay with A. naeslundii ATCC 12104 (Actinomyces naeslundii, ATCC12104, read-out: Minimum inhibitory concentration) is 50 µg/mL; with S. mutans UA 159 (Streptococcus mutans, UA159, read-out: Minimum inhibitory concentration), 6.25 µg/mL; in the assay on S. sobrinus HNG 909S (Streptococcus sobrinus, HNG909S, read-out: Minimum inhibitory concentration), 1.56 µg/mL; in the assay on P. aeruginosa (Pseudomonas aeruginosa, read-out: MIC) it was 12.5 µg/mL (≈ 24.7 µM); with B. cereus (Bacillus cereus, read-out: MIC), 3.12 µg/mL (≈ 6.18 µM); with S. aureus (Staphylococcus aureus, read-out: MIC), 0.781 µg/mL (≈ 1.55 µM). Besides, the MIC with S. thermophilus (Streptococcus thermophilus, read-out: MIC) was under 0.195 µg/mL; in the assay with K. pneumoniae (Klebsiella pneumoniae, read-out: MIC) it was 6.25 µg/mL (≈ 12.4 µM); in the assay on L. monocytogens (Listeria monocytogenes, read-out: MIC) it was 3.12 µg/mL (≈ 6.18 µM); in the assay on C. perfringens (Clostridium perfringens) it was 1.56 µg/mL (≈ 3.09 µM); with E. coli (Escherichia coli, read-out: MIC), 0.39 µg/mL (≈ 0.772 µM). Besides, the “inhibition of growth of biofilm embedded organism (CFU), in words” value (in assay [1]; in assay [2]; with biofilm embedded E. coli) was “more effective than protamine sulfate” in each case.

In the case of protamine sulfate [PS], the Minimum inhibitory concentration in the assay with A. naeslundii ATCC 12104, in the assay on S. mutans UA 159 and in the assay on S. sobrinus HNG 909S was over 200 µg/mL throughout. The MIC is 200 µg/mL with P. aeruginosa; over 200 µg/mL against B. cereus; 200 µg/mL with S. aureus; 200 µg/mL against S. thermophilus; over 200 µg/mL against K. pneumoniae; 200 µg/mL in the assay on L. monocytogens. The MIC was over 200 µg/mL with C. perfringens (agent alone) and over 100 µg/mL in the assay on E. coli.
